Measured values from US20160075653A1, “NEMATICIDAL N-(PHENYLCYCLOALKYL)CARBOXAMIDES AND N-(PHENYLCYCLOALKYL)THIOCARBOXAMIDES” (BAYER CROPSCIENCE AKTIENGESELLSCHAFT, priority 2013, published 2016).

Experiment: Measurement of log P values by HPLC on reversed phase columns (methods [a] pH 2.3, [b] pH 2.7, [c] pH 7.8)
Assay type: physicochemical
Method in brief: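 Retention times were converted to log P by linear interpolation between linear alkan-2-one standards (3 to 16 carbons) of known log P. Eluents, each with 10% to 95% acetonitrile gradient: phosphoric acid 0.1% at pH 2.3 [a]; formic acid 0.1% at pH 2.7, LC-MS [b]; ammonium hydrogen carbonate 0.001 molar at pH 7.8, LC-MS [c].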

[1] = HPLC reversed phase, method [b] (pH 2.7)
[2] = HPLC reversed phase, method [c] pH 7.8
[3] = HPLC on reversed phase column, method [b], pH 2.7

Compound	logP [1]	logP [2]	logP [3]
CC(C)Oc1ccc([C@H]2CCC[C@H]2NC(=O)c2ccccc2C(F)(F)F)cc1 (relative stereo) [Example 325]	3.90^[b]	3.84^[c];	
CC(C)Oc1ccc([C@H]2CCC[C@H]2NC(=O)c2cccnc2Cl)cc1 (relative stereo) [Example 326]	3.06^[b]	2.99^[c];	
CC(C)Oc1ccc([C@H]2CCC[C@H]2NC(=O)c2ccccc2Br)cc1 (relative stereo) [Example 327]	3.81^[b]	3.74^[c];	
O=C(N[C@@H]1CCC[C@@H]1c1ccccc1F)c1c(F)cccc1F (relative stereo) [Example 328]	2.95^[b]	2.90^[c];	
CC(C)Oc1ccc([C@H]2CCC[C@H]2NC(=O)c2c(F)cccc2F)cc1 (relative stereo) [Example 329]	3.55^[b]	3.49^[c];	
O=C(N[C@@H]1CCC[C@@H]1c1ccc(C(F)(F)F)cc1)c1nccnc1C(F)(F)F (relative stereo) [Example 330]	3.55^[b]	3.45^[c];	
O=C(N[C@@H]1CCC[C@@H]1c1ccc(C(F)(F)F)cc1)c1ncccc1C(F)(F)F (relative stereo) [Example 331]	3.36^[b]	3.28^[c];	
O=C(N[C@@H]1CCC[C@@H]1c1ccccc1F)c1ccccc1I (relative stereo) [Example 332]	3.30^[b]	3.28^[c];	
CC(C)Oc1ccc([C@H]2CCC[C@H]2NC(=O)c2ccccc2I)cc1 (relative stereo) [Example 333]	3.92^[b]	3.89^[c];	
CC(C)Oc1ccc([C@H]2CCC[C@H]2NC(=O)c2ccccn2)cc1 (relative stereo) [Example 334]	2.41^[b]	2.46^[c];	
CC(C)Oc1ccc([C@H]2CCC[C@H]2NC(=O)c2nccnc2Cl)cc1 (relative stereo) [Example 335]	3.23^[b]	3.21^[c];	
O=C(N[C@@H]1CCC[C@@H]1c1ccccc1F)c1nccnc1Cl (relative stereo) [Example 336]	2.61^[b]	2.55^[c];	
CC(C)Oc1ccc([C@H]2CCC[C@H]2NC(=O)c2ccc(I)s2)cc1 (relative stereo) [Example 338]	4.43^[b]	4.27^[c];	
O=C(N[C@@H]1CCC[C@@H]1c1ccccc1F)c1ccccn1 (relative stereo) [Example 339]	1.86^[b]	1.95^[c];	
CC(C)Oc1ccc([C@H]2CCC[C@H]2NC(=O)c2nccnc2C(F)(F)F)cc1 (relative stereo) [Example 340]	3.62^[b]	3.55^[c];	
O=C(N[C@@H]1CCC[C@@H]1c1ccccc1F)c1nccnc1C(F)(F)F (relative stereo) [Example 341]	3.00^[b]	2.94^[c];	
Cc1nc(C(F)(F)F)c(C(=O)N[C@@H]2CCC[C@@H]2c2ccc(OC(C)C)cc2)s1 (relative stereo) [Example 342]	3.80^[b]	3.71^[c];	
Cc1nc(C(F)(F)F)c(C(=O)N[C@@H]2CCC[C@@H]2c2ccccc2F)s1 (relative stereo) [Example 343]	3.18^[b]	3.07^[c];	
O=C(N[C@@H]1CCC[C@@H]1c1ccc(C(F)(F)F)cc1)c1sccc1I (relative stereo) [Example 360]	4.21^[b]	4.16^[c];	
O=C(N[C@@H]1CC[C@H]1c1ccc(F)cc1C(F)(F)F)c1c(F)cccc1F (relative stereo) [Example 492]	3.38^[b]		

Compound	logP [1]	logP [2]	logP [3]
O=C(N[C@@H]1CC[C@H]1c1ccc(F)cc1C(F)(F)F)c1ccccc1 (relative stereo) [Example 504]	3.42^[b]		
O=C(N[C@@H]1CC[C@@H]1c1ccc(F)cc1C(F)(F)F)c1ccc(Cl)cc1Cl (relative stereo) [Example 506]	3.85^[b]		
O=C(N[C@@H]1CC[C@H]1c1ccc(F)cc1C(F)(F)F)c1ccc(Cl)cc1 (relative stereo) [Example 507]	3.94^[b]		
O=C(N[C@@H]1CC[C@@H]1c1ccc(F)cc1C(F)(F)F)c1ccc(Cl)cc1 (relative stereo) [Example 508]	3.62^[b]		
O=C(N[C@@H]1CC[C@H]1c1ccc(F)cc1C(F)(F)F)c1ccc(Cl)cc1Cl (relative stereo) [Example 510]	4.08^[b]		
O=C(N[C@@H]1CC[C@@H]1c1ccc(F)cc1C(F)(F)F)c1cccc(Cl)c1 (relative stereo) [Example 511]	3.65^[b]		
O=C(N[C@@H]1CC[C@H]1c1ccc(F)cc1C(F)(F)F)c1ccccc1Cl (relative stereo) [Example 512]	3.56^[b]		
O=C(N[C@@H]1CC[C@H]1c1ccc(F)cc1C(F)(F)F)c1ccccc1[N+](=O)[O-] (relative stereo) [Example 521]	3.10^[b]		
O=C(N[C@@H]1CC[C@H]1c1ccc(F)cc1C(F)(F)F)c1cccnc1Cl (relative stereo) [Example 524]	2.93^[b]		
O=C(N[C@@H]1CC[C@H]1c1ccc(F)cc1C(F)(F)F)c1nccnc1Cl (relative stereo) [Example 525]	3.16^[b]		
O=C(N[C@@H]1CC[C@H]1c1ccc(F)cc1C(F)(F)F)c1cccnc1 (relative stereo) [Example 526]	2.41^[b]		
O=C(N[C@@H]1CC[C@@H]1c1cc(F)ccc1C(F)(F)F)c1ccc(Cl)cc1 (relative stereo) [Example 527]	3.63^[b]		
O=C(N[C@@H]1CC[C@@H]1c1cc(F)ccc1C(F)(F)F)c1ncc(C(F)(F)F)cc1Cl (relative stereo) [Example 529]	3.91^[b]		
Cc1nc(C(F)(F)F)c(C(=O)N[C@@H]2CC[C@H]2c2ccc(F)cc2C(F)(F)F)s1 (relative stereo) [Example 530]	3.60^[b]		
Cc1nc(C(F)(F)F)c(C(=O)N[C@@H]2CC[C@@H]2c2ccc(F)cc2C(F)(F)F)s1 (relative stereo) [Example 531]	3.35^[b]		
O=C(N[C@@H]1CC[C@H]1c1ccccc1Cl)c1cccnc1Cl (relative stereo) [Example 533]	3.65^[b]		
O=C(N[C@@H]1CC[C@@H]1c1ccccc1Cl)c1cccnc1Cl (relative stereo) [Example 534]	2.40^[b]		
O=C(N[C@@H]1CC[C@@H]1c1c(F)cccc1C(F)(F)F)c1ccc(Cl)cc1Cl (relative stereo) [Example 535]	3.93^[b]		
O=C(N[C@@H]1CC[C@@H]1c1c(F)cccc1C(F)(F)F)c1ccc(Cl)cc1 (relative stereo) [Example 536]	3.72^[b]		
O=C(N[C@@H]1CC[C@H]1c1ccccc1Cl)c1cccnc1 (relative stereo) [Example 539]	2.06^[b]		

Compound	logP [1]	logP [2]	logP [3]
O=C(N[C@@H]1CC[C@H]1c1ccccc1Cl)c1ccccc1[N+](=O)[O-] (relative stereo) [Example 547]	2.92^[b]		
O=C(N[C@@H]1CC[C@@H]1c1c(F)cccc1C(F)(F)F)c1cccc(Cl)c1 (relative stereo) [Example 552]	4.26^[b]		
Cc1nc(C(F)(F)F)c(C(=O)N[C@@H]2CC[C@H]2c2ccccc2Cl)s1 (relative stereo) [Example 554]	3.34^[b]		
O=C(N[C@@H]1CC[C@@H]1c1cc(F)ccc1C(F)(F)F)c1ccc(Cl)cc1Cl (relative stereo) [Example 557]	3.85^[b]		
O=C(N[C@@H]1CC[C@@H]1c1c(F)cccc1C(F)(F)F)c1cccnc1 (relative stereo) [Example 562]	2.16^[b]		
O=C(N[C@@H]1C[C@@H]1c1ccc(Cl)cc1Cl)c1cccnc1C(F)(F)F (relative stereo) [Example 565]	2.85^[b]		
Cc1nc(C(F)(F)F)c(C(=O)N[C@@H]2C[C@@H]2c2ccc(Cl)cc2Cl)s1 (relative stereo) [Example 568]	3.29^[b]		
Cc1nc(C(F)(F)F)c(C(=O)N[C@@H]2CC[C@@H]2c2cc(F)ccc2C(F)(F)F)s1 (relative stereo) [Example 569]	3.40^[b]		
Cc1nc(C(F)(F)F)c(C(=O)N[C@@H]2CC[C@@H]2c2c(F)cccc2C(F)(F)F)s1 (relative stereo) [Example 573]	3.47^[b]		
O=C(N[C@@H]1C[C@@H]1c1ccc(Cl)cc1Cl)c1cccnc1 (relative stereo) [Example 583]	2.06^[b]		
O=C(N[C@@H]1CC[C@H]1c1cccc(F)c1C(F)(F)F)c1ccccc1C(F)(F)F (relative stereo) [Example 588]	3.63^[b]		
O=C(N[C@@H]1CC[C@H]1c1cccc(F)c1C(F)(F)F)c1ccccc1I (relative stereo) [Example 590]	3.68^[b]		
O=C(N[C@@H]1CC[C@H]1c1cccc(F)c1C(F)(F)F)c1ccccc1 (relative stereo) [Example 591]	3.35^[b]		
O=C(N[C@@H]1CC[C@H]1c1cccc(F)c1C(F)(F)F)c1ccc(Cl)cc1Cl (relative stereo) [Example 593]			3.50^[b]
O=C(N[C@@H]1CC[C@H]1c1cccc(F)c1C(F)(F)F)c1cccc(Cl)c1 (relative stereo) [Example 596]			3.92^[b]
O=C(N[C@@H]1CC[C@@H]1c1cccc(F)c1C(F)(F)F)c1cccc(Cl)c1 (relative stereo) [Example 597]			3.50^[b]
O=C(N[C@@H]1CC[C@H]1c1cccc(F)c1C(F)(F)F)c1ccc(Cl)cc1 (relative stereo) [Example 600]			3.88^[b]
O=C(N[C@@H]1CC[C@H]1c1cccc(F)c1C(F)(F)F)c1ncc(C(F)(F)F)cc1Cl (relative stereo) [Example 602]			4.10^[b]
O=C(N[C@@H]1CC[C@@H]1c1cccc(F)c1C(F)(F)F)c1ncc(C(F)(F)F)cc1Cl (relative stereo) [Example 603]			3.81^[b]
